Laboratory results published in ChEMBL document CHEMBL1201862, “PubChem BioAssay data set” (2004).
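These data come from cells grown in 96-well plates and exposed to compound for 48 hours at five concentrations. The concentration for 50% growth inhibition is given as GI50.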 Active and inactive are the calls of the source. Rule as the data show it: active = GI50 up to about 1.1 µM and inactive = higher.

Experiments:
Test in all cases: inhibition of tumour cell growth, NCI panel, 48 h
SNB-19 = tested on: SNB-19
SK-MEL-28 = tested on: SK-MEL-28
SN12C = tested on: SN12C
HCT-116 = tested on: HCT-116
M14 = tested on: M14
SF-539 = tested on: SF-539
COLO 205 = tested on: COLO 205
CCRF-CEM = tested on: CCRF-CEM
T47D = tested on: T47D
RPMI-8226 = tested on: RPMI-8226
NCI/ADR-RES = tested on: NCI/ADR-RES
KM12 = tested on: KM12
NCI-H226 = tested on: NCI-H226
MDA-MB-231 = tested on: MDA-MB-231
HOP-62 = tested on: HOP-62
UO-31 = tested on: UO-31
SF-268 = tested on: SF-268
MCF7 = tested on: MCF7
SK-OV-3 = tested on: SK-OV-3
MDA-N = tested on: MDA-N
IGROV-1 = tested on: IGROV-1
MOLT-4 = tested on: MOLT-4
PC-3 = tested on: PC-3
DU-145 = tested on: DU-145
NCI-H23 = tested on: NCI-H23
HOP-92 = tested on: HOP-92
K562 = tested on: K562
HL-60 = tested on: HL-60
MDA-MB-435 = tested on: MDA-MB-435
TK-10 = tested on: TK-10
ACHN = tested on: ACHN
CAKI-1 = tested on: CAKI-1
HCT-15 = tested on: HCT-15
A549 = tested on: A549
SK-MEL-5 = tested on: SK-MEL-5
EKVX = tested on: EKVX
A498 = tested on: A498
UACC-257 = tested on: UACC-257
NCI-H460 = tested on: NCI-H460
OVCAR-3 = tested on: OVCAR-3
RXF 393 = tested on: RXF 393
SW-620 = tested on: SW-620
SNB-75 = tested on: SNB-75
Hs-578T = tested on: Hs-578T
786-0 = tested on: 786-0
Malme-3M = tested on: Malme-3M
NCI-H522 = tested on: NCI-H522
HCC 2998 = tested on: HCC 2998
BT-549 = tested on: BT-549
U-251 = tested on: U-251
SF-295 = tested on: SF-295
UACC-62 = tested on: UACC-62
HT-29 = tested on: HT-29
SK-MEL-2 = tested on: SK-MEL-2
OVCAR-8 = tested on: OVCAR-8
OVCAR-4 = tested on: OVCAR-4
LOX IMVI = tested on: LOX IMVI
SR = tested on: SR
OVCAR-5 = tested on: OVCAR-5

Q: Which results are given for `Oc1cc(-c2cccc(OC(F)(F)F)c2)nc2cc3c(cc12)OCO3`?
A: GI50 (SNB-19): 0.0938 µM (active); GI50 (SK-MEL-28): 0.323 µM (active); GI50 (SN12C): 0.169 µM (active); GI50 (HCT-116): 0.0395 µM (active); GI50 (M14): 0.0867 µM (active); GI50 (SF-539): 0.084 µM (active); GI50 (COLO 205): 1.24 µM (inactive); GI50 (CCRF-CEM): 0.0301 µM (active); GI50 (T47D): 55.7 µM (inactive); GI50 (RPMI-8226): 0.0508 µM (active); GI50 (NCI/ADR-RES): 0.0334 µM (active); GI50 (KM12): 0.0968 µM (active); GI50 (NCI-H226): 0.239 µM (active); GI50 (MDA-MB-231): 0.144 µM (active); GI50 (HOP-62): 0.119 µM (active); GI50 (UO-31): 0.174 µM (active); GI50 (SF-268): 2.72 µM (inactive); GI50 (MCF7): 0.135 µM (active); GI50 (SK-OV-3): 0.282 µM (active); GI50 (MDA-N): 0.0143 µM (active); GI50 (IGROV-1): 0.355 µM (active); GI50 (MOLT-4): 0.0371 µM (active); GI50 (PC-3): 0.0366 µM (active); GI50 (DU-145): 0.0459 µM (active); GI50 (NCI-H23): 0.12 µM (active); GI50 (HOP-92): 1.05 µM (active); GI50 (K562): 0.0275 µM (active); GI50 (HL-60): 0.0131 µM (active); GI50 (MDA-MB-435): < 0.0156 µM (active); GI50 (TK-10): 5.19 µM (inactive); GI50 (ACHN): > 32.7 µM (inactive); GI50 (CAKI-1): 0.0885 µM (active); GI50 (HCT-15): 0.0475 µM; GI50 (A549): 0.182 µM (active); GI50 (SK-MEL-5): 0.0508 µM (active); GI50 (EKVX): 0.643 µM (active); GI50 (A498): 0.516 µM (active); GI50 (UACC-257): 1.68 µM (inactive); GI50 (NCI-H460): 0.0877 µM (active); GI50 (OVCAR-3): 0.0547 µM (active); GI50 (RXF 393): 0.166 µM (active); GI50 (SW-620): 0.0883 µM (active); GI50 (SNB-75): 0.568 µM (active); GI50 (Hs-578T): 0.1 µM (active); GI50 (786-0): 0.0902 µM (active); GI50 (Malme-3M): 0.0435 µM (active); GI50 (NCI-H522): 0.0441 µM (active); GI50 (HCC 2998): 0.0631 µM (active); GI50 (BT-549): 0.327 µM (active); GI50 (U-251): 0.0658 µM (active); GI50 (SF-295): 0.0845 µM (active); GI50 (UACC-62): 0.123 µM (active); GI50 (HT-29): 1.96 µM (inactive); GI50 (SK-MEL-2): 0.169 µM (active); GI50 (OVCAR-8): 0.155 µM (active); GI50 (OVCAR-4): 1.19 µM (inactive)

Q: How did the GI50 (SNB-19) turn out when `O=C1NNC(=O)c2ccccc2SSc2ccccc2C(=O)NNC(=O)c2ccccc2SSc2ccccc21` was run?
A: 25.9 µM (inactive)

Q: What about the GI50 (SK-MEL-28) of the same molecule?
A: 45.5 µM (inactive)

Q: What about the GI50 (SN12C) of the same molecule?
A: 12.9 µM (inactive)

Q: And the GI50 (HCT-116)?
A: 7.76 µM (inactive)

Q: And the GI50 (M14)?
A: 24.4 µM (inactive)

Q: What about the GI50 (SF-539) of the same molecule?
A: 17.3 µM (inactive)

Q: What about the GI50 (COLO 205) of the same molecule?
A: 17.2 µM (inactive)

Q: And the GI50 (CCRF-CEM)?
A: 1.26 µM (inactive)

Q: And the GI50 (T47D)?
A: 28.8 µM (inactive)

Q: And the GI50 (RPMI-8226)?
A: 34 µM (inactive)

Q: And the GI50 (NCI/ADR-RES)?
A: 17.8 µM (inactive)

Q: And the GI50 (KM12)?
A: 22.5 µM (inactive)

Q: What about the GI50 (NCI-H226) of the same molecule?
A: > 50 µM (inactive)

Q: And the GI50 (MDA-MB-231)?
A: 32.4 µM (inactive)

Q: What about the GI50 (LOX IMVI) of the same molecule?
A: 12 µM (inactive)

Q: And the GI50 (HOP-62)?
A: 21.4 µM (inactive)

Q: What about the GI50 (UO-31) of the same molecule?
A: 3.39 µM (inactive)

Q: And the GI50 (SF-268)?
A: 5.31 µM (inactive)

Q: And the GI50 (MCF7)?
A: 6.05 µM (inactive)

Q: What about the GI50 (SK-OV-3) of the same molecule?
A: 23.3 µM (inactive)

Q: What about the GI50 (SR) of the same molecule?
A: 2.55 µM (inactive)

Q: What about the GI50 (MDA-N) of the same molecule?
A: 32 µM (inactive)

Q: And the GI50 (IGROV-1)?
A: 9.25 µM (inactive)

Q: And the GI50 (MOLT-4)?
A: 2.94 µM (inactive)

Q: And the GI50 (PC-3)?
A: 19.5 µM (inactive)

Q: And the GI50 (DU-145)?
A: 21.4 µM (inactive)

Q: What about the GI50 (NCI-H23) of the same molecule?
A: 9.33 µM (inactive)

Q: And the GI50 (HOP-92)?
A: > 50 µM (inactive)

Q: And the GI50 (K562)?
A: 12.9 µM (inactive)

Q: What about the GI50 (HL-60) of the same molecule?
A: 6.7 µM (inactive)

Q: And the GI50 (MDA-MB-435)?
A: 39 µM (inactive)

Q: And the GI50 (TK-10)?
A: 36.9 µM (inactive)

Q: What about the GI50 (ACHN) of the same molecule?
A: 14 µM (inactive)

Q: And the GI50 (CAKI-1)?
A: 13.2 µM (inactive)

Q: What about the GI50 (HCT-15) of the same molecule?
A: 8.99 µM

Q: What about the GI50 (A549) of the same molecule?
A: 19.5 µM (inactive)

Q: And the GI50 (SK-MEL-5)?
A: 26.9 µM (inactive)

Q: And the GI50 (EKVX)?
A: 18.1 µM (inactive)

Q: And the GI50 (UACC-257)?
A: 19.9 µM (inactive)

Q: What about the GI50 (NCI-H460) of the same molecule?
A: 5.97 µM (inactive)

Q: What about the GI50 (OVCAR-3) of the same molecule?
A: 16.9 µM (inactive)

Q: What about the GI50 (RXF 393) of the same molecule?
A: > 50 µM (inactive)

Q: And the GI50 (OVCAR-5)?
A: 16.9 µM (inactive)

Q: What about the GI50 (SW-620) of the same molecule?
A: 8.59 µM (inactive)

Q: What about the GI50 (SNB-75) of the same molecule?
A: 40.1 µM (inactive)

Q: And the GI50 (Hs-578T)?
A: > 50 µM (inactive)

Q: What about the GI50 (786-0) of the same molecule?
A: 13.5 µM (inactive)

Q: What about the GI50 (Malme-3M) of the same molecule?
A: 15.6 µM (inactive)

Q: And the GI50 (NCI-H522)?
A: 35.5 µM (inactive)

Q: What about the GI50 (HCC 2998) of the same molecule?
A: > 100 µM (inactive)

Q: What about the GI50 (BT-549) of the same molecule?
A: 11.5 µM (inactive)

Q: What about the GI50 (U-251) of the same molecule?
A: 17.3 µM (inactive)

Q: And the GI50 (SF-295)?
A: 2.45 µM (inactive)

Q: And the GI50 (UACC-62)?
A: 16.7 µM (inactive)

Q: And the GI50 (HT-29)?
A: 16.7 µM (inactive)

Q: And the GI50 (SK-MEL-2)?
A: 26.8 µM (inactive)

Q: What about the GI50 (OVCAR-8) of the same molecule?
A: 12.5 µM (inactive)

Q: And the GI50 (OVCAR-4)?
A: 33.7 µM (inactive)
